Data from US10987360B2, “Hepatitis B core protein modulators” (Assembly Biosciences, Inc., priority 2016, dated 2021).
Read-outs that look alike come from different tables or passages of the source.

How the values were obtained:
[1] = system: HBV viral load in AD38 cells; assay: Viral load production in AD38 cells, quantitative PCR of the core sequence in supernatant; type: cell-based; settings: 6 days incubation; for activity at 10 µM: Hepatitis B virus, 144 h
Protocol: (§1) Assay Measuring Activity of Compounds on Viral Production in and on Viability of AD38 Cells
(§2) AD38 cells grown in a 175 cm flask with “Growth Medium” (DMEM/F12 (1:1) (cat #SH30023.01, Hyclone, 1×Pen/step (cat #: 30-002-CL, Mediatech, Inc), 10% FBS (cat #: 101, Tissue Culture Biologics), 250 μg/mL G418 (cat #: 30-234-CR, Mediatech, Inc), 1 μg/mL Tetracycline (cat #: T3325, Teknova)) were detached with 0.25% trypsin. Tetracycline-free “treatment medium” (15 mL DMEM/F12 (1:1) (cat #SH30023.01, Hyclone, 1×Pen/step (cat #: 30-002-CL, Mediatech, Inc), with 2% FBS, Tet-system approved (cat #: 631106, Clontech) were then added to mix and spun at 1300 rpm for 5 min. Pelleted cells were then re-suspended/washed with 50 mL of 1×PBS 2 times and 10 mL Treatment Medium one time. AD38 cells were then re-suspended with 10 mL of Treatment Medium and counted. Wells of a collagen coated 96-well NUNC microtiter plate were seeded at 50,000/well in 180 μL of Treatment Medium, and 20 μL of in treatment media with either 10% DMSO (Control) or a 10× solution of compound in 10% DMSO was added. Plates were incubated for 6 days at 37° C.
Viral load production was assayed by quantitative PCR of the core sequence. Briefly, 5 μL of clarified supernatant was added to a PCR reaction mixture that contained forward primers HBV-f 5′-CTGTGCCTTGGGTGGCTTT-3′, Reverse primers HBV-r 5′-[…]-3′ and Fluorescent TaqMan™ Probes HBV-probe 5′-FAM/AGCTCCAAA/ZEN/[…]/3IABkFQ-3′ in Quanta Biosciences PerfeCTa® qPCR Toughmix®, and was subsequently on an Applied Biosystems VIIA7 in a final volume of 20 μL. The PCR mixture was incubated at 45° C. for 5 minutes, then 95° C. for 10 min, followed by 40 cycles of 10 seconds at 95° C. and 20 seconds at 60° C. Viral load was quantitated against known standards by using ViiA™ 7 Software. Viral load in the supernatant from wells with treated cells were compared against viral load in supernatant from DMSO control wells (≥3 per plate).

AD38 cells = assay: Viability of AD38 cells, Promega CellTiter-Glo; type: cell-based; settings: 6 days incubation, controls being 100%; for AD38 Viability Normalized Result (CPAM/DMSO %) at 10 μM: Table 6, compounds of Group 4
Protocol: as §1, §2
At the end of compound treatment period cell viability was assessed using a Promega CellTiter-Glo protocol. All supernatant was removed the previously treated 96-well microtiter plate, and 50 μL Tetracycline-free treatment medium (DMEM/F12 (1:1), 1×Pen/step (cat #: 30-002-CL, Mediatech, Inc), with 2% FBS, Tet-system approved (cat #: 631106, Clontech), and 1% DMSO was added back to each well. Another 50 μL of CellTiter-Glo reagent solution (Promega, G7573) was then added at room temperature and the contents mixed for 2 minutes on an orbital shaker to induce cell lysis. This was followed by incubation at room temperature for 10 minutes to stabilize the luminescent signal. The luminescence was recorded for 0.2 seconds per well on a Tecan multimode platereader (Infinite M1000 pro). The luminescent signal from each well was normalized against that of untreated (DMSO) control wells. All results in Tables 3-6 were reported with percent viability (with controls being 100%).

[2] = Table 4, compounds of Group 2, read-out: AD38 Viral Load (%) (VL with cmpd/VL in DMSO control) at 10 μM
[3] = Table 3, compounds of Group 1, read-out: AD38 Viral Load (%) (VL with cmpd/VL in DMSO control) at 10 μM
[4] = Table 6, compounds of Group 4, read-out: AD38 Viral Load (CpAM/DMSO %) at 10 μM

Compound	activity at 10 µM [1, 2]	AD38 Viability Normalized Result (cmpd/DMSO %) at 10 μM (AD38 cells; Table 4, compounds of Group 2)	activity at 10 µM [1, 3]	AD38 Viability Normalized Result (cmpd/DMSO %) at 10 μM (AD38 cells; Table 3, compounds of Group 1)	also measured
Cc1c(C(=O)NCc2cnc(-c3ccc(OCCCN(C)C)cc3)s2)ccc2c1NC(=O)c1ccncc1S2(=O)=O [Compound C22-01]	7.1%	92%			
O=C(NCc1cnc(CN2CCOCC2)s1)c1ccc2c(c1)NC(=O)c1ccccc1S2(=O)=O [Compound 927]			4.7%	92%	
O=C1CCC(c2ncc(CNC(=O)c3ccc4c(c3)NC(=O)c3ccccc3S4(=O)=O)s2)CC1 [Compound 818, 11-oxo-N-((2-(4-oxocyclohexyl)thiazol-5-yl)methyl)-10,11-dihydrodibenzo[b,f][1,4]thiazepine-8-carboxamide 5,5-dioxide]			1.3%	84%	
CC1=C(C)C(=O)Nc2cc(C(=O)NCc3cnc(-c4ccc(C#N)cc4F)s3)ccc2O1 [Compound C1-02]	20.4%	103%			
N#Cc1ccc(-c2ncc(CNC(=O)c3ccc4c(c3)NC(=O)C3CCCN3S4(=O)=O)s2)c(F)c1 (stereo not shown) [Compound C24-02]	43%	100%			
Cl.NC1CCC(Cc2ncc(CNC(=O)c3ccc4c(c3)NC(=O)c3ccccc3S4(=O)=O)s2)CC1 (stereo not shown) [Compound 884, N-((2-((4-aminocyclohexyl)methyl)thiazol-5-yl)methyl)-11-oxo-10,11-dihydrodibenzo[b,f][1,4]thiazepine-8-carboxamide 5,5-dioxide hydrochloride]			15.1%	94%	
N#Cc1ccc(-c2ncc(CNC(=O)c3ccc4c(c3)NC(=O)[C@@H]3CCCCN3S4(=O)=O)s2)c(F)c1 (single isomer, unassigned) [C25-02-Isomer I]	3%	108%			
O=C(NCc1cnc(-n2cccn2)s1)c1ccc2c(c1)NC(=O)C1CCCCN1S2(=O)=O (stereo not shown) [Compound C25-04]	5.4%	98%			
O=C(NCc1cnc(C2CCC(O)CC2)s1)c1ccc2c(c1)NC(=O)c1ccccc1S2(=O)=O (stereo not shown) [Compound 924, N-((2-(4-hydroxycyclohexyl)thiazol-5-yl)methyl)-11-oxo-10,11-dihydrodibenzo[b,f][1,4]thiazepine-8-carboxamide 5,5-dioxide]			0.7%	95%	
COC1(OC)CCC(c2ncc(CNC(=O)c3ccc4c(c3)NC(=O)c3ccccc3S4(=O)=O)s2)C1 (stereo not shown) [Compound 980-B, N-((2-(3,3-dimethoxycyclopentyl)thiazol-5-yl)methyl)-11-oxo-10,11-dihydrodibenzo[b,f][1,4]thiazepine-8-carboxamide 5,5-dioxide]			0.9%	93%	
O=C(NCc1cnc(-c2ccccc2)s1)c1ccc2c(c1)NC(=O)c1ccncc1S2 [Compound 578]	3%	100%			
N#Cc1ccc(-c2ncc(CNC(=O)c3ccc4c(CC5CCOCC5)c[nH]c4c3)s2)c(F)c1 [Compound C18-02, N-((2-(4-cyano-2-fluorophenyl)thiazol-5-yl)methyl)-3-((tetrahydro-2H-pyran-4-yl)methyl)-1H-indole-6-carboxamide]					activity at 10 µM [1, 4]: 62.9%; AD38 Viability Normalized Result (CPAM/DMSO %) at 10 μM (AD38 cells): 106%
Cc1c[nH]c2cc(C(=O)NCc3cnc(C(F)(F)F)s3)ccc12 [Compound C14-01, 3-Methyl-N-((2-(trifluoromethyl)thiazol-5-yl)methyl)-1H-indole-6-carboxamide]					activity at 10 µM [1, 4]: 63%; AD38 Viability Normalized Result (CPAM/DMSO %) at 10 μM (AD38 cells): 113%
ten-butyl (2-(4-(5-((5,5-dioxido-11-oxo-10,11-dihydrodibenzo[b,f][1,4]thiazepine-8-carboxamido) methyl) thiazol-2-yl) piperidin-1-yl)-2-oxoethyl) (methyl) carbamate [Compound 1035-A]				102%	AD38 Viral Load (%) (VL with cmpd/VL in DMSO control) at 10 μM ([1]; Table 3, compounds of Group 1): 57.8%
